Some results are limits rather than exact numbers.

Data set [1] has as its system Mus musculus. As to the kind of experiment: Ability to inhibit TNF-alpha in LPS-stimulated mice after oral administration by ELISA assay. The data set is classed as functional. Set-up: concentration or dose not given beside the values.
In data set [2] the test system is Mus musculus. As to the kind of experiment: Ability to augment IL-10 in LPS-stimulated mice after oral administration by ELISA assay. Set-up: concentration or dose not given beside the values. The data set is classed as functional. For orientation: In an ELISA, binding on a coated surface is turned into a signal by an enzyme label.
In data set [3] the target is Serotonin 2 (5-HT2) receptor (Homo sapiens, UniProt P41595+P28223+P28335). The data set can be described thus: Binding affinity towards 5-hydroxytryptamine 2 receptor. In kind it is protein assay.
Data set [4] deals with T1, Adrenergic receptor alpha-1 (Rattus norvegicus, UniProt P15823+P23944+P43140).
T1 sequence (P15823 whole entry): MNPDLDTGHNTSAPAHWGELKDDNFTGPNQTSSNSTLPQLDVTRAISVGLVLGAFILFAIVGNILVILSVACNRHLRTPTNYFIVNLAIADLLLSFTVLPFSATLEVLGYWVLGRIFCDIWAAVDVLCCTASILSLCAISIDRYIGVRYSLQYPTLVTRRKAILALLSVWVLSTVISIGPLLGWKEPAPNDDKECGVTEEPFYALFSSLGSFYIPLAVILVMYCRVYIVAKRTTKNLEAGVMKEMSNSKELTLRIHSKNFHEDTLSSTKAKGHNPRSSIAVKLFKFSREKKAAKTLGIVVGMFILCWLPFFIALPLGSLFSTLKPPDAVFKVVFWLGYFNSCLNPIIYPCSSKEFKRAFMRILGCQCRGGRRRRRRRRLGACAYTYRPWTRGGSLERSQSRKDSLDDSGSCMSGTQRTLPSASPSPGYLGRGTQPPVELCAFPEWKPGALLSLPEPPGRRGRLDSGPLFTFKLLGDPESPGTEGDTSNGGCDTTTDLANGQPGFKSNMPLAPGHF
T1 sequence (P23944 whole entry): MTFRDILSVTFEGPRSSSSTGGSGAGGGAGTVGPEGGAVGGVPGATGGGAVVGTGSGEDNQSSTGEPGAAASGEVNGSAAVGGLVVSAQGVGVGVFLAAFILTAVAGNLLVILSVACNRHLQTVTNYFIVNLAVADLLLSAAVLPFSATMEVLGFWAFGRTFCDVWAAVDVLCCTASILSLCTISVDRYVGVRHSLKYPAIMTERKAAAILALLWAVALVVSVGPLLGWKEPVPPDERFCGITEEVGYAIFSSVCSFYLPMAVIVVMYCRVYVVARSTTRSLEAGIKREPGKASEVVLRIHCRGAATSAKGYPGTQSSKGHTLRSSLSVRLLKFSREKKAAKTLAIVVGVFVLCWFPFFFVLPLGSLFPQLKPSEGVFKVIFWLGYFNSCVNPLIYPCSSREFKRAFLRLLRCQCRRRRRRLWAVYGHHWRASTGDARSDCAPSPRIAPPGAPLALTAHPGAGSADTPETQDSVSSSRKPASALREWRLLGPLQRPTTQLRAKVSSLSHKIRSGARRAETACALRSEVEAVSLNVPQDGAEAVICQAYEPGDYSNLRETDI
T1 sequence (P43140 whole entry): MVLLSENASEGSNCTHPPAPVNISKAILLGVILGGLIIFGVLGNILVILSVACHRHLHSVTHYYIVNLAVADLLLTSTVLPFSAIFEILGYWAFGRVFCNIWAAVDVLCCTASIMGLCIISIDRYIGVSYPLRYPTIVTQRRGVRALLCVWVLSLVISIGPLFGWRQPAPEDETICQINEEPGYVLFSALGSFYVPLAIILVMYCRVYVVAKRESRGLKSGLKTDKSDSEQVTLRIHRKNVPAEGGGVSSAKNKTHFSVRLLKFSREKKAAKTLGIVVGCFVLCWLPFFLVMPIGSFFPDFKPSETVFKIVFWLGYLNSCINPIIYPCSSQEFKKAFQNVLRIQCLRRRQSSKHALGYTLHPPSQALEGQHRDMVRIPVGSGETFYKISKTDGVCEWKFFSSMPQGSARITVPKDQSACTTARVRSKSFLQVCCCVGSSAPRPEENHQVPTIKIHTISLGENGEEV
As to the kind of experiment: Binding affinity towards Alpha-1 adrenergic receptor. In kind it is protein assay.

The next data set concerns the target D(2) dopamine receptor (Bos taurus, UniProt P20288). The data set can be described thus: Binding affinity towards Dopamine receptor D2.
Data set [5] concerns the target T2, 5-hydroxytryptamine receptor 1A (Rattus norvegicus, UniProt P19327).
T2 sequence (P19327 whole entry): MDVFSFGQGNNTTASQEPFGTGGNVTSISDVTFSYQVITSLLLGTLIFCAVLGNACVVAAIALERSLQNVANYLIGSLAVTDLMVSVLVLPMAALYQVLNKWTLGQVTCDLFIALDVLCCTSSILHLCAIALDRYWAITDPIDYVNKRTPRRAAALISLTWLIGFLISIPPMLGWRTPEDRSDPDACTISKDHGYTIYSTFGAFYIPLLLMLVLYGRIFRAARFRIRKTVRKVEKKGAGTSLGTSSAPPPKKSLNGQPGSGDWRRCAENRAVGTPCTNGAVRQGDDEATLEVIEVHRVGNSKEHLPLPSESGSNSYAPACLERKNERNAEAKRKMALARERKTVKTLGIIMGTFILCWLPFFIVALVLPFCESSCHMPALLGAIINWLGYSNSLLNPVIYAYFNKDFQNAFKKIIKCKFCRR
The data set can be described thus: Binding affinity towards 5-hydroxytryptamine 1A receptor.

The species entered for data set [6] is Mus musculus. As to the kind of experiment: Dose that prevented shock death in mice. In kind it is functional.
Data set [7] relates to Mus musculus. The data set can be described thus: Ability of compound to prevent shock death in mice expressed as no of mice that survived out of 10 at a dose of 10 mg/kg. In kind it is functional.
Data set [8] in a line: Oral bioavailability at a dose of 30 mg/kg in rats. The note with it: rat, in vivo. The data set is classed as ADME, organism-based.

Sequence of D(2) dopamine receptor (P20288 whole entry): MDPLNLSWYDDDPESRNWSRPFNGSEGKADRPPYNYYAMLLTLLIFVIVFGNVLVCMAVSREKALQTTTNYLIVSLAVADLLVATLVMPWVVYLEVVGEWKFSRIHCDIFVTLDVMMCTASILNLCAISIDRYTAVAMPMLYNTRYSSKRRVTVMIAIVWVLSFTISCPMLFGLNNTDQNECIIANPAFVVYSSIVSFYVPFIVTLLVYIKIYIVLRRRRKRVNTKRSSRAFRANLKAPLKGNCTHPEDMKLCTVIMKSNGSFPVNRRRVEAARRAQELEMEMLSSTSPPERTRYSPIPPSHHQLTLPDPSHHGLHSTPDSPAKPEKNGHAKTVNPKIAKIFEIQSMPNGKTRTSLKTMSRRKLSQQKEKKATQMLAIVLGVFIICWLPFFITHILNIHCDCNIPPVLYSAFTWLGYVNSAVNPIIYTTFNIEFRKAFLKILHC

For `CC(=O)Nc1ccc(CCCCN2CCN(c3ccccc3)CC2)cc1`, the Inhibition with Mus musculus [1] is 88%. The “IL-10 level (% of control)” value in the data set with Mus musculus [2] is recorded as 585%.

`N=C(N)NCc1ccc(CCCCN2CCN(c3ccccc3)CC2)cc1` displayed an Inhibition with Mus musculus [1] of 39%. In the data set with Mus musculus [2], the “IL-10 level (% of control)” value is on record as 124%.

On to `CC(=O)NCc1ccc(CN2CCN(c3ccc(F)cc3)CC2)cc1`, for which the inhibitory constant (Ki) (in data set [3]; in [4]; on D(2) dopamine receptor; in data set [5]) was over 1000 nM each time. The same molecule had an Inhibition in the data set with Mus musculus [1] of 87%. In addition, the “IL-10 level (% of control)” value in the data set on Mus musculus [2] was found to be 1494%.

As for `CC(=O)NCc1ccc(CCCCN2CCN(c3ccccc3)CC2)cc1`, the Ki in data set [3] turned out to be 48 nM; in data set [4], 4.6 nM; at D(2) dopamine receptor, 49 nM; in [5] it was 6 nM. This molecule came in with an Inhibition in the data set on Mus musculus [1] of 94%. Moreover, the “IL-10 level (% of control)” value in the data set on Mus musculus [2] turned out to be 1337%.

With `CC(=O)NCCCc1ccc(CCCCN2CCN(c3ccccc3)CC2)cc1`, the Inhibition in the data set on Mus musculus [1] was determined as 68%. For the same molecule, the “IL-10 level (% of control)” value in the data set on Mus musculus [2] worked out at 146%.

As for `CC(=O)NCc1ccc(CCCN2CCN(c3ccccc3)CC2)cc1`, the Ki stood at 160 nM in data set [3], 6.4 nM in [4], 340 nM on D(2) dopamine receptor and 33 nM in data set [5]. This molecule registered an Inhibition in the data set on Mus musculus [1] of 97%. Further, in the data set on Mus musculus [2], the “IL-10 level (% of control)” value is reported as 1805%.

Turning to `COc1ccc(N2CCN(Cc3ccc(CNC(C)=O)cc3)CC2)cc1`, the inhibition constant (Ki) (in data set [3]; in data set [4]; on D(2) dopamine receptor; in data set [5]) was over 1000 nM throughout. The molecule also had an Inhibition in the data set with Mus musculus [1] of 74%. Moreover, in the data set with Mus musculus [2], the “IL-10 level (% of control)” value amounted to 449%.

As to `CC(=O)NCc1ccc(CN2CCN(c3ccc(Cl)cc3)CC2)cc1`, the inhibitory constant (Ki) (in data set [3]; in [4]; on D(2) dopamine receptor; in [5]) was over 1000 nM each time. In addition, the Inhibition in the data set on Mus musculus [1] was found to be 65%. The “IL-10 level (% of control)” value in the data set with Mus musculus [2] was 361%.

In the data set with Mus musculus [1], `N/C(S)=N/Cc1ccc(CCCCN2CCN(c3ccccc3)CC2)cc1` showed an Inhibition of 69%. In addition, the “IL-10 level (% of control)” value in the data set with Mus musculus [2] worked out at 129%.

In turn, `c1ccc(CCCCN2CCN(c3ccccc3)CC2)cc1` gave an Inhibition in the data set on Mus musculus [1] of 77%. In addition, the “IL-10 level (% of control)” value in the data set with Mus musculus [2] was found to be 337%.

Consider `Nc1nc(-c2ccc(CCCCN3CCN(c4ccccc4)CC3)cc2)cs1`, for which the Ki in data set [3] was 37 nM; in data set [4] it was 7.9 nM; at D(2) dopamine receptor, 5.5 nM; in [5], 3.8 nM. Besides, the Inhibition in the data set with Mus musculus [1] was found to be 87%. The “IL-10 level (% of control)” value in the data set on Mus musculus [2] turned out to be 382%.

With `CC(=O)NCc1ccc(CN2CCN(c3ccc(F)cc3F)CC2)cc1`, the Ki (in [3]; in data set [4]; at D(2) dopamine receptor) was over 1000 nM throughout. The same molecule displayed an Inhibition with Mus musculus [1] of 91%. This molecule returned a Dose in the data set filed under Mus musculus [6] of 10 mg/kg. In the data set with Mus musculus [7], this molecule gave a Survival of 8. This molecule displayed a bioavailability in [8] of 95.5%. Further, the “IL-10 level (% of control)” value with Mus musculus [2] is listed as 2293%.

Consider `CC(=O)NCc1ccc(CCN2CCN(c3ccccc3)CC2)cc1`, for which the inhibition constant (Ki) in data set [3] worked out at 130 nM; in data set [4], 69 nM; on D(2) dopamine receptor it was 170 nM; in data set [5], 2.9 nM. This molecule also gave an Inhibition in the data set with Mus musculus [1] of 96%. Besides, the “IL-10 level (% of control)” value in the data set on Mus musculus [2] came to 2784%.

Molecule `NC(=O)NCc1ccc(CCCCN2CCN(c3ccccc3)CC2)cc1` returned an Inhibition in the data set on Mus musculus [1] of 85%. Besides, in the data set with Mus musculus [2], the “IL-10 level (% of control)” value is 253%.

For `CC(=O)NCCc1ccc(CCCCN2CCN(c3ccccc3)CC2)cc1`, in the data set on Mus musculus [1], the Inhibition came to 76%. Also, the “IL-10 level (% of control)” value in the data set with Mus musculus [2] was determined as 292%.

Consider `CC(=O)NCc1ccc(CN2CCN(c3ccccc3)CC2)cc1`, for which the Ki in data set [3] was over 1000 nM; in [4], over 1000 nM; at D(2) dopamine receptor it was over 1000 nM; in data set [5], 140 nM. The same molecule came in with an Inhibition in the data set on Mus musculus [1] of 89%. Besides, the “IL-10 level (% of control)” value with Mus musculus [2] is recorded as 376%.

In general, Inhibition refers to the share of the control response that was lost under treatment. As usually defined, the Ki is a dissociation constant, usually derived from enzyme kinetics or from competition with a known ligand. In general, bioavailability refers to the share of a dose that reaches the circulation, judged against a reference dose that is usually intravenous.
